From patent US8044069B2, “Compounds as calcium channel blockers” (Abbott Laboratories, priority 2008, dated 2011)
pIC50: −log10 of the molar value.

Target: human Cav2.2 (Homo sapiens, UniProt Q00975)
Experiment: Assessment of calcium channel activity using FLIPR (Ca2+ influx in IMR32 cells)
Assay type: cell-based
Conditions: IMR32 cells endogenously expressing human Cav2.2; 60 minute pre-incubation; 2 μM nifedipine; depolarized with 80 mM KCl, 5 mM CaCl2
Summary of the method: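 FLIPR measured Ca2+ influx triggered by 80 mM KCl depolarization together with a step to 5 mM external CaCl2. Percent inhibition relative to uninhibited activity was fitted sigmoidally for IC50.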

human Cav2.2, sequence (Q00975 whole entry): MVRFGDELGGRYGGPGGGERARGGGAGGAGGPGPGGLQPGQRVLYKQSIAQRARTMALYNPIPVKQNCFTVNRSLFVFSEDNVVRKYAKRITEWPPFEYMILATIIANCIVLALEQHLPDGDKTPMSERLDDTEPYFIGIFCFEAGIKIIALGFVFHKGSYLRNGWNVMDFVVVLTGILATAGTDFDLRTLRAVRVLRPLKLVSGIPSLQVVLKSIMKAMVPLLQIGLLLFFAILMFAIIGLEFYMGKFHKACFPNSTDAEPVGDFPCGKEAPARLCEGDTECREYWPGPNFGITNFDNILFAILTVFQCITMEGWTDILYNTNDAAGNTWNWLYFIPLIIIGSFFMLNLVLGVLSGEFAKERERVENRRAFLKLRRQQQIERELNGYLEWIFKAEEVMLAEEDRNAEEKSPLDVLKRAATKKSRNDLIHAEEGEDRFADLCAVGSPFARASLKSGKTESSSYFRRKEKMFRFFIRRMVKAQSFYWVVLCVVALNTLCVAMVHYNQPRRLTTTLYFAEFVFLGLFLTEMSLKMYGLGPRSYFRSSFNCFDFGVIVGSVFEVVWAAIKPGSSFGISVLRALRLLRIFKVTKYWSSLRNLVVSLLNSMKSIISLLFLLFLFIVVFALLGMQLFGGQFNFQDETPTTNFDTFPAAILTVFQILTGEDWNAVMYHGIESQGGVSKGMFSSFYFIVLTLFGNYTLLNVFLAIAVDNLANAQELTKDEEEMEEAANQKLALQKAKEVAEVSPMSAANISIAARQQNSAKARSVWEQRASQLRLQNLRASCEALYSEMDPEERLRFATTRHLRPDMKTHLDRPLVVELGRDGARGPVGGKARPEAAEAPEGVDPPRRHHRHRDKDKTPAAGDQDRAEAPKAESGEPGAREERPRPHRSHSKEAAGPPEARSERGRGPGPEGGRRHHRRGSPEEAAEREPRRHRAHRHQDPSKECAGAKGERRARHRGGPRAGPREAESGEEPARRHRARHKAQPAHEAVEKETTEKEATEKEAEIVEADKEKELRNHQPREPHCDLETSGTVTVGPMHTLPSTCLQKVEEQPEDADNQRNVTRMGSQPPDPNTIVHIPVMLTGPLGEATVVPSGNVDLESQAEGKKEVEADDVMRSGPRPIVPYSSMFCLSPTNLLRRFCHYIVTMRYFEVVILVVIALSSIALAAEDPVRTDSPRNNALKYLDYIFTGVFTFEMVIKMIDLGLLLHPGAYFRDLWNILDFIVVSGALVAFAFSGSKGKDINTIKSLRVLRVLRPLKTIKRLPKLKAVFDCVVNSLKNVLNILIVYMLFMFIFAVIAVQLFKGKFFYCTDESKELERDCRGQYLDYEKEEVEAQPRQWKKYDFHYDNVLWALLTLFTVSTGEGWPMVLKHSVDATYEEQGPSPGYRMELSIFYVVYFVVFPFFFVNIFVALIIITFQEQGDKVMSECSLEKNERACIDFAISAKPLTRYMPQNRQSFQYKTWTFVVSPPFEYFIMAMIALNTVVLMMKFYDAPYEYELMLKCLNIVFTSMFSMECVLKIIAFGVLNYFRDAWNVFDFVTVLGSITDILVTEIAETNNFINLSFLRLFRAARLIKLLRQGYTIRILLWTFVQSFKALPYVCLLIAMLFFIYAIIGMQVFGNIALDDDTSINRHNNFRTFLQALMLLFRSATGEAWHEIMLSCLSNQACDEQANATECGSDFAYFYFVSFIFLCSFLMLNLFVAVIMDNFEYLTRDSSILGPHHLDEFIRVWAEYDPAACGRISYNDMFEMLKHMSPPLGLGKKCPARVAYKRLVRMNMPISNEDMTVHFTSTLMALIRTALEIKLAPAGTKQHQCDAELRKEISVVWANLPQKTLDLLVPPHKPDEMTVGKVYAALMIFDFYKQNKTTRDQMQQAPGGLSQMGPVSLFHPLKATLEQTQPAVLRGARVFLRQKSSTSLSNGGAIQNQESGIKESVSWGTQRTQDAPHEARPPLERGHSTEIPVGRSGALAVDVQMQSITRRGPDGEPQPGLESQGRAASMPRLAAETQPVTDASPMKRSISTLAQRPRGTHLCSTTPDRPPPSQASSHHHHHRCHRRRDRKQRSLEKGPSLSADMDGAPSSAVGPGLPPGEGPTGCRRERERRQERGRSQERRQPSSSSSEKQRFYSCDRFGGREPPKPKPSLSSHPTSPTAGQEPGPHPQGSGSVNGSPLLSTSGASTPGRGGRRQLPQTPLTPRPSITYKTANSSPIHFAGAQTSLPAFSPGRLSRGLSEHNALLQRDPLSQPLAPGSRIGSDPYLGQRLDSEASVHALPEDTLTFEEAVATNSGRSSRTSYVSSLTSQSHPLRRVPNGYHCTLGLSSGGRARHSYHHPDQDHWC
human Cav2.2, sequence (P54289 25-951 partner limits assumed): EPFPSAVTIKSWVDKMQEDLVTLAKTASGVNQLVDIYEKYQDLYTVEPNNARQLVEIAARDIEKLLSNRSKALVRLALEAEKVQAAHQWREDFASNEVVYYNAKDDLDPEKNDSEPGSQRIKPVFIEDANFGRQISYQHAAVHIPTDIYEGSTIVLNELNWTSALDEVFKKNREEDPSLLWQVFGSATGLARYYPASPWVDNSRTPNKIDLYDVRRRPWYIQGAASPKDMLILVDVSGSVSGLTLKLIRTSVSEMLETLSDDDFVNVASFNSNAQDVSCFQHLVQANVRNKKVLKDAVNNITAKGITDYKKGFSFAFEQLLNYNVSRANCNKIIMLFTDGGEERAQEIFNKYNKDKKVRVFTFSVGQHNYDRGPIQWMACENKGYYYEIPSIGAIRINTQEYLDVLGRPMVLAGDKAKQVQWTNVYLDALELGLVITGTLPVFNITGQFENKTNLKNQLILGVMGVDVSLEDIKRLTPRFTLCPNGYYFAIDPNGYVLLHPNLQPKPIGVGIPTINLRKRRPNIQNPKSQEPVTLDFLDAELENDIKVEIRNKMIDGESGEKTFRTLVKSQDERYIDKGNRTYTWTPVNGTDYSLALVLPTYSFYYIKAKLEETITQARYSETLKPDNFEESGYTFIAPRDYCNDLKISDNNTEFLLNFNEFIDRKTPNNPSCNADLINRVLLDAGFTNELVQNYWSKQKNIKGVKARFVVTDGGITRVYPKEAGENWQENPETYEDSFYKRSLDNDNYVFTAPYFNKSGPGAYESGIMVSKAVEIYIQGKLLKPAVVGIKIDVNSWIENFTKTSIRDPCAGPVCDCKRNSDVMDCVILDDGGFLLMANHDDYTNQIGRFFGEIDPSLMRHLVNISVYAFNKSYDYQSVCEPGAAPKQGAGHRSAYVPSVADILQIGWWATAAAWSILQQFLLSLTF
human Cav2.2, sequence (P54289 952-1103 partner limits assumed): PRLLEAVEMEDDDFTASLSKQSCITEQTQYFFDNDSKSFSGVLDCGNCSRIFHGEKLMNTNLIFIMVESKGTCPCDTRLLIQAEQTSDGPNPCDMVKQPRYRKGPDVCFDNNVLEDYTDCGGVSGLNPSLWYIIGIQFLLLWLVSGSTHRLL
human Cav2.2, sequence (P54284 whole entry partner): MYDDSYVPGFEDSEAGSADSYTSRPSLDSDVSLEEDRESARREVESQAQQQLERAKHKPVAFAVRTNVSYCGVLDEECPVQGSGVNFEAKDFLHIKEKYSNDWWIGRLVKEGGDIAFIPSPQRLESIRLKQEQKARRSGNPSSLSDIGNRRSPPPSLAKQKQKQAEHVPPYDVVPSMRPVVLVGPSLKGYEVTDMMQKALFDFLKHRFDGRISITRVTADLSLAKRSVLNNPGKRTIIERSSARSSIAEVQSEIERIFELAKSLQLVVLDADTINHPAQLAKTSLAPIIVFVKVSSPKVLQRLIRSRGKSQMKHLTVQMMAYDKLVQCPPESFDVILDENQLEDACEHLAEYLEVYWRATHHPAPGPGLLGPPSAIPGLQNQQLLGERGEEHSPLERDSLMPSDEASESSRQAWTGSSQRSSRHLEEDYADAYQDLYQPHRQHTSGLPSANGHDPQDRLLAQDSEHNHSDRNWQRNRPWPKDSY

SMILES | pIC50
COc1ccc(CCN(C)C(=O)CN2CCCC(c3ccccc3)(c3ccccc3)C2=O)cc1OC [Example 143, N-[2-(3,4-dimethoxyphenyl)ethyl]-N-methyl-2-(2-oxo-3,3-diphenylpiperidin-1-yl)acetamide] | 4.93
O=C(CN1CCC(c2ccccc2)(c2ccccc2)C1=O)N1CCC(NCc2cccc(C(F)(F)F)c2)CC1 [Example 42, 1-[2-oxo-2-(4-{[3-(trifluoromethyl)benzyl]amino}piperidin-1-yl)ethyl]-3,3-diphenylpyrrolidin-2-one] | 5.95
COc1cccc(CCN(C)CCCN2CCCC(c3cccc(OC)c3)(C(C)C)C2=O)c1 (stereo not shown) [Example 128, 3-isopropyl-3-(3-methoxyphenyl)-1-{3-[[2-(3-methoxyphenyl)ethyl](methyl)amino]propyl}piperidin-2-one] | 5.95
O=C(CN1CCC(c2ccc(F)cc2)C1=O)N1CCc2ccc(Cl)cc2C1 (stereo not shown) [Example 256, 1-[2-(7-chloro-3,4-dihydroisoquinolin-2(1H)-yl)-2-oxoethyl]-3-(4-fluorophenyl)pyrrolidin-2-one] | 5.12
O=C1N(CCCN2CCN(c3cccc(C(F)(F)F)c3)CC2)CCCC1(c1ccccc1)c1ccccc1 [Example 140, 3,3-diphenyl-1-(3-{4-[3-(trifluoromethyl)phenyl]piperazin-1-yl}propyl)piperidin-2-one] | 5.90
O=C(CN1CCCC(c2ccccc2)C1=O)N1CCc2ccc(C(F)(F)F)cc2C1 (stereo not shown) [Example 96, 1-{2-oxo-2-[7-(trifluoromethyl)-3,4-dihydroisoquinolin-2(1H)-yl]ethyl}-3-phenylpiperidin-2-one] | 5.05
O=C(CN1CCC(c2ccccc2)(c2ccccc2)C1=O)NC1CCN(C(c2ccccc2)c2ccccc2)CC1 [Example 48, N-(1-benzhydrylpiperidin-4-yl)-2-(2-oxo-3,3-diphenylpyrrolidin-1-yl)acetamide] | 6.40
O=C(CN1CCC[C@H](c2ccccc2)C1=O)N1Cc2ccc(F)cc2C1 (single isomer, unassigned) [Example 188] | < 4.52
COc1ccc(CCN(C)CCN2CCCC(c3cccc(OC)c3)(C(C)C)C2=O)cc1 (stereo not shown) [Example 130, 3-isopropyl-3-(3-methoxyphenyl)-1-{2-[[2-(4-methoxyphenyl)ethyl](methyl)amino]ethyl}piperidin-2-one] | 5.95
O=C1N(S(=O)(=O)c2cccc(C(F)(F)F)c2)CCC1(c1ccccc1)c1ccccc1 [Example 144, 3,3-diphenyl-1-{[3-(trifluoromethyl)phenyl]sulfonyl}pyrrolidin-2-one] | 5.26
COc1ccc(C2(c3ccc(OC)cc3)CCCN(CCCN(C)CCc3cccc(OC)c3)C2=O)cc1 [Example 125, 3,3-bis(4-methoxyphenyl)-1-{3-[[2-(3-methoxyphenyl)ethyl](methyl)amino]propyl}piperidin-2-one] | 5.77

The next lines start with the values.

pIC50 | SMILES
5.42 | O=C(CN1CCC(c2ccccc2)(c2ccccc2)C1=O)Nc1ccc(C(F)(F)F)cn1 [Example 246, 2-(2-oxo-3,3-diphenylpyrrolidin-1-yl)-N-[5-(trifluoromethyl)pyridin-2-yl]acetamide]
< 4.52 | O=C(CN1CCC(c2ccccc2)(c2ccccc2)C1=O)NCc1ncco1 [Example 168, N-(1,3-oxazol-2-ylmethyl)-2-(2-oxo-3,3-diphenylpyrrolidin-1-yl)acetamide]
5.27 | O=C1N(Cc2nc(-c3ccncc3)no2)CCC1(c1ccccc1)c1ccccc1 [Example 222, 3,3-diphenyl-1-[(3-pyridin-4-yl-1,2,4-oxadiazol-5-yl)methyl]pyrrolidin-2-one]
5.31 | O=C1N(Cc2nc(-c3ccc(O)cc3)no2)CCCC1(c1ccccc1)c1ccccc1 [Example 206, 1-{[3-(4-hydroxyphenyl)-1,2,4-oxadiazol-5-yl]methyl}-3,3-diphenylpiperidin-2-one]
5.18 | Nc1ccc(-c2noc(CN3CCC(c4ccccc4)(c4ccccc4)C3=O)n2)cn1 [Example 234, 1-{[3-(6-aminopyridin-3-yl)-1,2,4-oxadiazol-5-yl]methyl}-3,3-diphenylpyrrolidin-2-one]
